Patent US20100029654A1, “CARDIOVASCULAR COMPOSITIONS AND USE OF THE SAME FOR THE TREATMENT OF ALZHEIMER'S DISEASE” (MOUNT SINAI SCHOOL OF MEDICINE, priority 2006, published 2010)
Counter-ions that a name gives are not always drawn. Like-named read-outs stand apart in the source and are kept apart here.

Tests used:
[1] = test system: Aβ1-40; assay: Aβ1-40 content in conditioned medium of primary cortico-hippocampal neuron cultures from Tg2576 mice (ELISA; primary and secondary dose-response screening); type: cell-based, mouse; settings: for activity at 100 µM / EC50: Mus musculus; for activity at 100 µM / Ab1-40 (% of ctl): drug 100 μM; for activity at 100 µM: read-out: Ab1-40 (% of ctl); for reduced Aβ1-40: <85% of ctl
How it was run: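 Primary cortico-hippocampal neurons from embryonic Tg2576 mice were plated at 1.0×10^5 cells per well on poly-D-lysine-coated 96-well plates in Neurobasal with 2% B27, 0.5 mM L-glutamine and 1% penicillin-streptomycin. Cultures received drug in 1% DMSO, and Aβ1-40 in the conditioned medium was measured by BioSource ELISA 24 hours after treatment, relative to vehicle controls.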

[2] = test system: Aβ1-42; assay: Aβ1-42 content in conditioned medium of primary cortico-hippocampal neuron cultures from Tg2576 mice (ELISA; primary and secondary dose-response screening); type: cell-based, mouse; settings: for Ab1-42 (% of ctl) / activity at 100 µM: drug 100 μM; for activity at 100 µM: Mus musculus, Neuron, 24 h, read-out: Ab1-42 (% of ctl); for reducing Aβ1-42: <85% of ctl
How it was run: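 Primary cortico-hippocampal neurons from embryonic Tg2576 mouse brain were seeded on poly-D-lysine-coated 96-well plates at 1.0×10^5 cells per well in serum-free Neurobasal medium with 2% B27, 0.5 mM L-glutamine and 1% penicillin-streptomycin. For primary screening, duplicate wells received 100 μM drug (1% DMSO final). Vehicle-treated cultures served as controls, and Aβ1-42 in conditioned medium was measured by commercial ELISA.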

[3] = test system: Aβ1-42; assay: as above; type: cell-based, mouse; settings: Mus musculus; for activity at 100 µM: primary screening, drug 100 μM, Tg2576 neuron cultures, table sorted by Aβ1-42, read-out: Ab1-42 (% of ctl); for EC50: Neuron
[4] = test system: primary cortico-hippocampal neuron cultures; assay: MTT in primary screening
[5] = test system: primary cortico-hippocampal neuron cultures; assay: lactate dehydrogenase (LDH) activity assay in parallel neuron cultures; settings: for LDH at E-5M % of change: drug at E-5M
Method: For in vitro treatments drugs available from “The Spectrum Collection” in stocks of 10 mM in DMSO were applied directly to cultures to the desired concentrations (final 1% DMSO); control primary neuron cultures from Tg2576 embryos were treated with vehicle resulting in a final 1% DMSO.
Cell viability was assessed using a commercial available LDH assay kit according to the manufacture's instruction (Promega).

[6] = 24 h, primary screening, Tg2576 neuron cultures, table sorted by Aβ1-42
[7] = Primary Screening, table sorted by Aβ1-40
[8] = primary screening, table sorted by Aβ1-42
[9] = Neuron, 24 h, Primary Screening, table sorted by Aβ1-40
[10] = Neuron, 24 h, primary screening, Tg2576 neuron cultures, table sorted by Aβ1-42
[11] = secondary dose-response screening 0.01-100 μM, 24 hours
[12] = primary screening, Tg2576 neuron cultures, table sorted by Aβ1-42
[13] = 24 h, secondary dose-response screening 0.01-100 μM, 24 hours, read-out: EC50 (molar) Aβ1-42
[14] = Neuron, secondary dose-response screening 0.01-100 μM, 24 hours, read-out: EC50 (molar) Aβ1-40
[15] = 24 h, conditioned medium of primary cortico-hippocampal neuron cultures from Tg2576 embryos, 24 hours after treatment, relative to vehicle (1% DMSO) control, read-out: EC50 (molar) Aβ1-42

C[C@]12CC[C@H]3[C@@H](CC[C@]4(O)C[C@@H](O)CC[C@]34C=O)[C@@]1(O)CC[C@@H]2C1=CC(=O)OC1 [Strophanthidin]
activity at 100 µM [1, 6]: 108%
Ab1-40 (% of ctl) [1, 7]: 107.5 % of ctl
Ab1-42 (% of ctl) [2, 7]: 88.6 % of ctl
activity at 100 µM ([3]; 24 h): 88.6%
MTT (% of ctl) [4, 7]: 99.2 % of ctl
MTT (% of ctl) [4, 8]: 99.2 % of ctl
LDH (% of ctl) [5, 7]: 119.4 % of ctl
LDH (% of ctl) [5, 8]: 119.4 % of ctl

COC(=O)[C@@H]1[C@H]2C[C@H]3c4[nH]c5ccccc5c4CCN3C[C@@H]2CC[C@@H]1O [Yohimbine Hydrochloride]
activity at 100 µM [1, 9]: 66.2%
activity at 100 µM [1, 10]: 66.2%
reduced Aβ1-40 ([1]; primary screening): reduced Aβ1-40
EC50 (molar) Aβ1-40 [1, 11]: no fit
activity at 100 µM [2, 7]: 68.9%
activity at 100 µM [2, 12]: 68.9%
reducing Aβ1-42 ([2]; primary screening): useful in reducing Aβ1-42
EC50 [3, 13]: 7.08e-12 M
MTT (% of ctl) [4, 7]: 82.7 % of ctl
MTT (% of ctl) [4, 8]: 82.7 % of ctl
LDH (% of ctl) [5, 7]: 107.8 % of ctl
LDH at E-5M % of change [5]: 6.0%
LDH (% of ctl) [5, 8]: 107.8 % of ctl

CCOC(=O)C1=C(C)NC(C)=C(C(=O)OC)C1c1cccc([N+](=O)[O-])c1 (centres unmarked) [Nitrendipine]
activity at 100 µM [1, 9]: 33%
activity at 100 µM [1, 10]: 33%
EC50 [1, 14]: 0.000822 M
activity at 100 µM [2, 7]: 64%
activity at 100 µM [2, 12]: 64%
EC50 [3, 15]: 1.6e-06 M
EC50 [3, 13]: 1.6e-06 M
MTT (% of ctl) [4, 7]: 100.8 % of ctl
MTT (% of ctl) [4, 8]: 100.8 % of ctl
LDH (% of ctl) [5, 7]: 94.3 % of ctl
LDH at E-5M % of change [5]: 5.0%
LDH (% of ctl) [5, 8]: 94.3 % of ctl

N=C(N)NC(=O)c1nc(Cl)c(N)nc1N [Amiloride Hydrochloride]
activity at 100 µM [1, 9]: 77.5%
activity at 100 µM [1, 10]: 77.5%
EC50 ([1]; Neuron, Table IV, dose-response 0.01-100 μM, read-out: EC50 (M): Ab-lowering activity Abeta1-40): 8.67e-05 M
EC50 [1, 14]: 8.67e-05 M
reduced Aβ1-40 ([1]; primary screening): reduced Aβ1-40
activity at 100 µM [2, 7]: 47.1%
activity at 100 µM [2, 12]: 47.1%
reducing Aβ1-42 ([2]; primary screening): useful in reducing Aβ1-42
EC50 [3, 13]: 0.039 M
EC50 ([3]; Table IV, dose-response 0.01-100 μM, read-out: EC50 (M): Ab-lowering activity): 3.01e-05 M
MTT (% of ctl) [4, 7]: 80.8 % of ctl
MTT (% of ctl) [4, 8]: 80.8 % of ctl
LDH (% of ctl) [5, 7]: 104.7 % of ctl
LDH (at 5F-5 M) ([5]; Table IV): no change
LDH at E-5M % of change [5]: 6.4%
LDH (% of ctl) [5, 8]: 104.7 % of ctl

Cc1cc(C(C)(C)C)cc(C)c1CC1=NCCN1 [Xylometazoline Hydrochloride]
activity at 100 µM [1, 6]: 66.6%
Ab1-40 (% of ctl) [1, 7]: 66.6 % of ctl
reduced Aβ1-40 ([1]; primary screening): reduced Aβ1-40
Ab1-42 (% of ctl) [2, 7]: 71.8 % of ctl
reducing Aβ1-42 ([2]; primary screening): useful in reducing Aβ1-42
activity at 100 µM ([3]; 24 h): 71.8%
MTT (% of ctl) [4, 7]: 88.2 % of ctl
MTT (% of ctl) [4, 8]: 88.2 % of ctl
LDH (% of ctl) [5, 7]: 110.8 % of ctl
LDH (% of ctl) [5, 8]: 110.8 % of ctl

CCC[C@H](N[C@@H](C)C(=O)N1[C@H](C(=O)O)C[C@@H]2CCCC[C@@H]21)C(=O)OCC [Perindopril Erbumine]
activity at 100 µM [1, 9]: 83.8%
activity at 100 µM [1, 10]: 83.8%
EC50 (molar) Aβ1-40 ([1]; conditioned medium of primary cortico-hippocampal neuron cultures from Tg2576 embryos, 24 hours after treatment, relative to vehicle (1% DMSO) control): no fit
reduced Aβ1-40 ([1]; primary screening): reduced Aβ1-40
EC50 (molar) Aβ1-40 [1, 11]: no fit
activity at 100 µM [2, 7]: 88.8%
activity at 100 µM [2, 12]: 88.8%
EC50 [3, 15]: 4.5e-09 M
EC50 [3, 13]: 4.05e-09 M
MTT (% of ctl) [4, 7]: 95.3 % of ctl
MTT (% of ctl) [4, 8]: 95.3 % of ctl
LDH (% of ctl) [5, 7]: 72.5 % of ctl
LDH at E-5M % of change [5]: −5.6%
LDH (% of ctl) [5, 8]: 72.5 % of ctl

CC(C)N(CCC(C(N)=O)(c1ccccc1)c1ccccn1)C(C)C (centres unmarked) [Disopyramide Phosphate]
activity at 100 µM [1, 9]: 83.5%
activity at 100 µM [1, 10]: 83.5%
EC50 ([1]; Neuron, 24 h, read-out: EC50 (molar) Aβ1-40): 7.78e-10 M
reduced Aβ1-40 ([1]; primary screening): reduced Aβ1-40
activity at 100 µM [2, 7]: 66.3%
activity at 100 µM [2, 12]: 66.3%
reducing Aβ1-42 ([2]; primary screening): useful in reducing Aβ1-42
EC50 [3, 13]: 5.33e-05 M
MTT (% of ctl) [4, 7]: 71.2 % of ctl
MTT (% of ctl) [4, 8]: 71.2 % of ctl
LDH (% of ctl) [5, 7]: 125.8 % of ctl
LDH at E-5M % of change [5]: −3.7%
LDH (% of ctl) [5, 8]: 125.8 % of ctl
